Assay results published in US20250255867A1 (Kadmon Corporation, LLC, priority 2022, published 2025).
Values joined by “and” are separate entries in the source; they are usually repeats but may differ in a detail not shown here. Equal values may be shown once. Read-outs that look alike come from different tables or passages of the source.

## CC(C)NC(=O)COc1cccc(-c2nc(Nc3ccc4[nH]ncc4c3)c3ccccc3n2)c1 [Belumosudil, 2-{3-[4-(1H-indazol-5-ylamino)-2-quinazolinyl]phenoxy}-N-(propan-2-yl) acetamide]
Cohort 3 400 mg QD
  Thrombocytosis: # Events: 0
  Thrombocytosis: Affected/At Risk: 0/21
  Thrombocytosis: Affected/At Risk (%): (0%)
  Tinea pedis: # Events: 0
  Tinea pedis: Affected/At Risk: 0/21
  Tinea pedis: Affected/At Risk (%): (0%)
  Tooth fracture: # Events: 0
  Tooth fracture: Affected/At Risk: 0/21
  Tooth fracture: Affected/At Risk (%): (0%)
  Total Other Adverse Events: Affected/At Risk: 19/21
  Total Other Adverse Events: Affected/At Risk (%): (90.48%)
  Transfusion reaction: # Events: 0
  Transfusion reaction: Affected/At Risk: 0/21
  Transfusion reaction: Affected/At Risk (%): (0%)
  Tremor: # Events: 4
  Tremor: Affected/At Risk: 3/21
  Tremor: Affected/At Risk (%): (14.29%)
  Type 2 diabetes mellitus: # Events: 0
  Type 2 diabetes mellitus: Affected/At Risk: 0/21
  Type 2 diabetes mellitus: Affected/At Risk (%): (0%)
  Ulcerative keratitis: # Events: 0
  Ulcerative keratitis: Affected/At Risk: 0/21
  Ulcerative keratitis: Affected/At Risk (%): (0%)
  Upper respiratory tract infection: # Events: 9
  Upper respiratory tract infection: Affected/At Risk: 7/21
  Upper respiratory tract infection: Affected/At Risk (%): (33.33%)
  Upper-airway cough syndrome: # Events: 1
  Upper-airway cough syndrome: Affected/At Risk: 1/21
  Upper-airway cough syndrome: Affected/At Risk (%): (4.76%)
  Urinary retention: # Events: 0
  Urinary retention: Affected/At Risk: 0/21
  Urinary retention: Affected/At Risk (%): (0%)
  Urinary tract infection: # Events: 0
  Urinary tract infection: Affected/At Risk: 0/21
  Urinary tract infection: Affected/At Risk (%): (0%)
  Urinary tract pain: # Events: 1
  Urinary tract pain: Affected/At Risk: 1/21
  Urinary tract pain: Affected/At Risk (%): (4.76%)
  Urine output decreased: # Events: 0
  Urine output decreased: Affected/At Risk: 0/21
  Urine output decreased: Affected/At Risk (%): (0%)
  Vascular access complication: # Events: 0
  Vascular access complication: Affected/At Risk: 0/21
  Vascular access complication: Affected/At Risk (%): (0%)
  Vertigo: # Events: 0
  Vertigo: Affected/At Risk: 0/21
  Vertigo: Affected/At Risk (%): (0%)
  Vision blurred: # Events: 4
  Vision blurred: Affected/At Risk: 4/21
  Vision blurred: Affected/At Risk (%): (19.05%)
  Vomiting: # Events: 4
  Vomiting: Affected/At Risk: 4/21
  Vomiting: Affected/At Risk (%): (19.05%)
  Weight decreased: # Events: 4
  Weight decreased: Affected/At Risk: 2/21
  Weight decreased: Affected/At Risk (%): (9.52%)
  Weight increased: # Events: 4
  Weight increased: Affected/At Risk: 1/21
  Weight increased: Affected/At Risk (%): (4.76%)
  White blood cell count decreased: # Events: 2
  White blood cell count decreased: Affected/At Risk: 1/21
  White blood cell count decreased: Affected/At Risk (%): (4.76%)
Cohort 3 400 mg QD n=21
  ALT/AST increased all grade, No.: 2
  ALT/AST increased grade ≥3, No.: 0
  Anemia grade ≥3, No.: 0
  Any AE, No. of patients: 16
  Cough all grade, No.: 7
  Death, No.: 2
  Diarrhea all grade, No.: 7
  Drug-related AE, No.: 14
  Drug-related SAE, No.: 0
  Dyspnea all grade, No.: 7
  Dyspnea grade ≥3, No.: 4
  Fatigue all grade, No.: 9
  Grade ≥3 AE, No.: 14
  Headache all grade, No.: 6
  Hyperglycemia grade ≥3, No.: 2
  Hypertension all grade, No.: 4
  Hypoxia grade ≥3, No.: 2
  Lung infection or pneumonia grade ≥3, No.: 2
  Nausea all grade, No.: 8
  Peripheral edema all grade, No.: 6
  SAE, No.: 12
  URI all grade, No.: 7
Example 1
  Cytomegalovirus (CMV) infection or reactivation: no reported CMV infection or reactivation
  Patients who discontinued because of potentially drug-related AEs: Three
Example 1, listed as belumosudil
  Cytomegalovirus (CMV) infection or reactivation: No cases
Total N=54
  AE cough, patients: 22%
  AE diarrhea, patients: 33%
  AE dyspnea, patients: 30%
  AE fatigue, patients: 33%
  AE headache, patients: 24%
  AE hypertension, patients: 20%
  AE increased liver function tests, patients: 33%
  AE nausea, patients: 33%
  AE peripheral edema, patients: 24%
  AE upper respiratory infection, patients: 46%
  ALT/AST increased all grade, No.: 18
  ALT/AST increased grade ≥3, No.: 4
  Anemia grade ≥3, No.: 3
  Any AE, No. of patients: 53
  Cough all grade, No.: 12
  Death, No.: 2
  Diarrhea all grade, No.: 18
  Drug-related AE, No.: 30
  Drug-related SAE, No.: 0
  Dyspnea all grade, No.: 16
  Dyspnea grade ≥3, No.: 7
  Fatigue all grade, No.: 18
  Grade ≥3 AE, No.: 33
  Grade ≥3 AE, patients: Sixty-one
  Grade ≥3 cytopenias, patients: 4%
  Grade ≥3 dyspnea, patients: 13%
  Grade ≥3 hyperglycemia, patients: 7%
  Grade ≥3 hypoxia, patients: 7%
  Grade ≥3 increased liver function tests, patients: 7%
  Headache all grade, No.: 13
  Hyperglycemia grade ≥3, No.: 4
  Hypertension all grade, No.: 11
  Hypoxia grade ≥3, No.: 4
  Lung infection or pneumonia grade ≥3, No.: 5
  Nausea all grade, No.: 18
  Peripheral edema all grade, No.: 13
  SAE, No.: 23
  Serious AE dyspnea, patients: 7%
  Serious AE hypoxia, patients: 4%
  Serious AE influenza-like illness, patients: 4%
  Serious AE lung infection, patients: 6%
  Serious AEs, patients: 43%
  URI all grade, No.: 25
all
  Patients with dose interruptions: 41%
  Patients with dose reductions: 9%
All in cohort 3, none attributed to belumosudil
  Patients who died during the study: Four
In vivo
  Eyelid margin crusting: Affected/At Risk: 1/17 and 0/16 and 0/21
overall
  Median relative dose intensity: 98%
range, 2-39 days
  Median duration of dose interruption: 10 days
range, 21-859 days
  Median duration of dose reduction: 97 days
